Measured values reported in PMC11500415, “Chemical inhibition of stomatal differentiation by perturbation of the master-regulatory bHLH heterodimer via an ACT-Like domain” (Nature Communications, 2024).
Several values for one entry are separate records, joined by “and”; a condition that tells them apart may be missing. Equal entries are not always repeated.

Experiments:
[1] = biological target: T1, SCRM-MUTE (Arabidopsis thaliana, UniProt Q9M8K6); experiment: BLI of SCRM-MUTE interaction in presence of compound; format: binding, A. thaliana; conditions: for Response: BLI, GST-SCRM loaded, in nm (unit assumed); for effect on the SCRM-MUTE heterodimerization (in words): BLI and ITC (Supplementary Fig. 9, Supplementary Tables 2, 3)
T1 construct: MUTE (1-202); GST (N, cleaved yes); made in house; host or cells: E. coli BL21
T1 sequence (Q9M8K6 1-202): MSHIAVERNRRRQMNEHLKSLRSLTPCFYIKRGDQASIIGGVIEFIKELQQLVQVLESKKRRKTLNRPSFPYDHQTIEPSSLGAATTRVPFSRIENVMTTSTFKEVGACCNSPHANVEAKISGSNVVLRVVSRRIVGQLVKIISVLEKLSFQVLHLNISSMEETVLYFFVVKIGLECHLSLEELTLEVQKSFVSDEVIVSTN
Text: (§1) A. thaliana SCRM (1-494), ΔNSPCH (98-364), MUTE (1-202), ΔNFAMA (190-414), MUTEΔC (1-114), MUTER133A_R134A, MUTEE162A_E163A, MUTER133A_R134A_E162A_E163A, SCRM-ACTL (405-494), MUTE-ACTL (114-202), SPCH-ACTL (285-364), FAMA-ACTL (306-414), MUTE_ACTLR133A_R134A, MUTE_ACTLE162A_E163A, MUTE_ACTLR133A_R134A_E162A_E163A were cloned into pGEX-4T-1 vector with an N-terminal GST tag and a thrombin cleavage sequence. For protein expression, the constructs were transformed into E. coli strain BL21. For each transformant, a single colony was selected and incubated in 10 ml LB liquid media. The overnight-incubated E. coli suspensions were transferred to 1 L LB medium and incubated at 37 °C for around 2 h until the OD600 reached 0.4–0.6. The isopropyl β-D-1-thiogalactopyranoside ([…] of final concentration) was added to the cultures and the strains were incubated at 22 °C for a further 18 h. GST-fused proteins were purified using glutathione agarose resin. The soluble portion of the cell lysate was loaded onto a GST-Sepharose column. Nonspecifically bound proteins were removed by washing the column with 20 mM Tris pH 8.0, 200 mM NaCl. The bound GST-fused protein was eluted with 10 mm glutathione and 20 mM Tris pH 8.0, 200 mM NaCl. The GST-fused proteins were exchanged with phosphate-buffered saline buffer, and then the solution was treated with 50 μg of thrombin for 10–12 h at 16 ^οC. The GST portion of the protein was cleaved during thrombin digestion, and then the whole solution was reloaded onto the glutathione S-transferase column to obtain pure protein. The purified proteins were further purified by gel filtration on a Superdex-200 (GE) column using fast protein liquid chromatography and phosphate buffer (pH 7.2) as the eluent. The purity of the protein was checked by SDS-PAGE. For detailed lists of oligo DNA and plasmid information, see Supplementary Tables 5, 6, respectively.
The binding affinities of SCRM to MUTE / MUTER133A_R134A / MUTEE162A_E163A / MUTER133A_R134A_E162A_E163A in presence and absence of Stomidazolone (3) and its analogues (AYSJ1059 (5) and AYSJ1061 (6)), and Stomidazolone / AYSJ1059 / AYSJ1061 interactions with GST-tagged SCRM, MUTE, SPCH, FAMA, MUTE ΔACTL, MUTE_ACTL, SCRM_ACTL, SPCH_ACTL and FAMA_ACTL, MUTER133A_134A, MUTEE162A_E163A, MUTER133A_R134A_E162A_E163A were measured using the Octet Red96 system (ForteBio, Pall Life Sciences) following the manufacturer’s protocols. The optical probes coated with anti-GST were first loaded with 500 nM GST tagged proteins before kinetic binding analyses. The experiment was performed in 96-well plates maintained at 30 °C. Each well was loaded with 200 μL reaction volume for the experiment. The binding buffer used in these experiments contained 1× PBS supplemented with 2% DMSO, 0.02% Tween20. The concentrations of the Stomidazolone as the analyte in the binding buffer were 100, 50, 25, 12.5, 6.25, 3.12, and 1.56 μM. There was no binding of the analytes to the unloaded probes as shown by the control wells. Binding kinetics to all seven concentrations of the analytes were measured simultaneously using default parameters on the instrument. The data were analyzed using the Octet data analysis software. The association and dissociation curves were fit with the 1:1 homogeneous ligand model. The kobs (observed rate constant) values were used to calculate Kd, with steady-state analysis of the direct binding. See Supplementary Table 3 for details.

[2] = biological target: T1, SCRM-MUTE; experiment: ITC of SCRM binding to MUTE in presence of compound; set-up: species or system A. thaliana; conditions: for n of SCRM_MUTE binding: without 0.96; for -T△S of SCRM_MUTE binding: without 25.3 ± 0.5; for △G of SCRM_MUTE binding: without -5.2 ± 0.2; for △H of SCRM_MUTE binding: without -30.5 ± 0.6
Text: as §1
Binding of the small molecule Stomidazolone (3) to SCRM, MUTE, SPCH, FAMA, MUTEΔC, MUTE_ACTL, SCRM_ACTL, SPCH_ACTL and FAMA_ACTL, MUTER133A_R134A, MUTEE162A_E163A, MUTER133A_R134A_E162A_E163A, as well as SCRM binding to MUTE in the presence and absence of Stomidazolone (3) / AYSJ1059 (5) /AYSJ1061 (6) was characterized at 30 °C using a Malvern PEAQ-ITC microcalorimeter. All the protein samples were dialyzed overnight using PBS buffer containing 2% DMSO and 1 mM DTT. Stomidazolone was dissolved in PBS buffer containing 2% DMSO and 1 mM DTT. Titrations were performed by injecting 1 × 0.5-μL and 12 × 3-μL or 1 × 0.75-μL and 18 × 2-μL or 1 × 0.2-μL and 25 × 1.3-μL aliquots of 1 mM Stomidazolone / AYSJ1059 / AYSJ1061 to 5-30 μM of protein in PBS buffer pH 7.4, containing 2% DMSO and 1 mM DTT. All titrations were carried out at least twice. The raw data were corrected using buffer and protein controls and analyzed using the software supplied by the manufacturer. See Supplementary Table 3 for details.

SMILES	Response ([1]; MUTE+Stomid Conc. 78 nM)	Response ([1]; MUTE+Stomid Conc. 78 nM, listed as Stomid)	Response ([1]; MUTE+Stomid Conc. 156 nM)	Response ([1]; MUTE+Stomid Conc. 312.5 nM)	Response ([1]; MUTE+Stomid Conc. 625 nM)	Response ([1]; MUTE+Stomid Conc. 1250 nM)	Response ([1]; MUTE+Stomid Conc. 2500 nM)	Response ([1]; MUTE+Stomid Conc. 5000 nM)	n of SCRM_MUTE binding [2]	-T△S of SCRM_MUTE binding [2]	△G of SCRM_MUTE binding [2]	△H of SCRM_MUTE binding [2]	effect on the SCRM-MUTE heterodimerization (in words) [1]
O=C1C(c2ccccc2)=NC(NS(=O)(=O)c2ccccc2)(c2ccccc2)N1S(=O)(=O)c1ccccc1 (stereo not shown) [Stomidazolone]	0.031	0.0213	0.0603 and 0.0323	0.0687 and 0.078	0.1313 and 0.1154	0.2145 and 0.1812	0.2742 and 0.2312	0.2812 and 0.3134	0.91	5.2 ± 0.4	-2.3 ± 0.2	-7.5 ± 0.3	
Cc1ccc(C2(NS(=O)(=O)c3ccccc3)N=C(c3ccccc3)C(=O)N2S(=O)(=O)c2ccccc2)cc1 (stereo not shown) [AYSJ1059]									1.0	27.2 ± 0.6	-6.3 ± 0.2	-33.5 ± 0.6	minimal effects
O=C1C(c2ccccc2)=NC(NS(=O)(=O)c2ccccc2)(c2ccc(Br)cc2)N1S(=O)(=O)c1ccccc1 (stereo not shown) [AYSJ1061]									1.1	35.3 ± 0.6	-10.2 ± 0.2	-45.5 ± 0.6	minimal effects
